# Assay results published in ChEMBL document CHEMBL1129976, “New benzocycloalkylpiperazines, potent and selective 5-HT1A receptor ligands” (J Med Chem, 1997).
# What was measured:
# [1] = molecular target: T1, Alpha-1A adrenergic receptor (Bos taurus, UniProt P18130); assay: Binding affinity of compound towards Alpha-1 adrenergic receptor using [3H]prazosin 0.5 nM ligand in frontal cortex calf was determined; assay type: tissue-based
# T1 sequence (P18130 whole entry): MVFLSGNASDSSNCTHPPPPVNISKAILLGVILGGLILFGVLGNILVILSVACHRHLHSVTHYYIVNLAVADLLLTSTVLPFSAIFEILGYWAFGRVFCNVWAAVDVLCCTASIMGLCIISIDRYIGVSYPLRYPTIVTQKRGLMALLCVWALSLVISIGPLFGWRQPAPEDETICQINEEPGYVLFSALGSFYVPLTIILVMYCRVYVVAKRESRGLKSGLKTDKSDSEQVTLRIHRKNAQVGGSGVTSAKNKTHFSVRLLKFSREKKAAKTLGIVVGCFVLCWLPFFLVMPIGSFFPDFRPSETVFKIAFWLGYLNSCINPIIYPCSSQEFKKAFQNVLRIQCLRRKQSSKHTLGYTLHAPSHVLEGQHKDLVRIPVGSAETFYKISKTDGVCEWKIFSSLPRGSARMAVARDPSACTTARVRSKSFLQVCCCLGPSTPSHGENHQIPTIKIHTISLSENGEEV
# [2] = molecular target: T1, Alpha-1A adrenergic receptor; assay: Inhibition of [3H]prazosin binding to Alpha-1 adrenergic receptor in bovine frontal cortex; assay type: tissue-based
# [3] = molecular target: T2, 5-hydroxytryptamine receptor 3B (Mus musculus, UniProt Q9JHJ5); assay: Inhibition of [3H]BRL-43694 binding to 5-hydroxytryptamine 3 receptor in NG cells 108-15; assay type: cell-based
# T2 sequence (Q9JHJ5 whole entry): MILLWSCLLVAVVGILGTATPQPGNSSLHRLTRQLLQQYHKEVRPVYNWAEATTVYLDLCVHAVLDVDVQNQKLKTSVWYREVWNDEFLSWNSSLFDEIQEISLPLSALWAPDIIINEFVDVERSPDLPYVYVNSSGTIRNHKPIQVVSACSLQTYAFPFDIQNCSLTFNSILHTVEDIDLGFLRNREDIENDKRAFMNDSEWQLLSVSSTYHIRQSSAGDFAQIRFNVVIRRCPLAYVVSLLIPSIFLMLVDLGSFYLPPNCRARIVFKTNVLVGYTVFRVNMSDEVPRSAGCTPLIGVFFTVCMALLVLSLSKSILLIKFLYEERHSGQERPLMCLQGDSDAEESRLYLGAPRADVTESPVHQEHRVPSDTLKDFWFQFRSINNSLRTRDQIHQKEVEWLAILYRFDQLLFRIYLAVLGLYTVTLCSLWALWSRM
# [4] = molecular target: D(2) dopamine receptor (Bos taurus) (UniProt P20288); assay: Inhibition of [3H]YM-09151-2 binding to Dopamine receptor D2 of bovine striatal preparations at 10e-7 M
# D(2) dopamine receptor (Bos taurus), sequence (P20288 whole entry): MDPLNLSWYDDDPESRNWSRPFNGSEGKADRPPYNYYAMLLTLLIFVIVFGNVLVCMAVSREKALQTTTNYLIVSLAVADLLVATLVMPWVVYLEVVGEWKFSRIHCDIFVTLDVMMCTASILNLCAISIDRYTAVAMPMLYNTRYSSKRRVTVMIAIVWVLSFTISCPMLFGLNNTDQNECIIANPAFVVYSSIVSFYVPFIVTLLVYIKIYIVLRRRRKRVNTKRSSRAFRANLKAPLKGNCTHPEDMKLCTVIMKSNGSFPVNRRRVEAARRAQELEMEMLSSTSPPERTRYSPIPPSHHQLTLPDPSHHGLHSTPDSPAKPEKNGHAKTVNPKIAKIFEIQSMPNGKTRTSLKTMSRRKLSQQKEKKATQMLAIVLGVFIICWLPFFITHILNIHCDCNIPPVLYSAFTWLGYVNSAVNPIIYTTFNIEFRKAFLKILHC
# D(2) dopamine receptor = D(2) dopamine receptor (Bos taurus, UniProt P20288); assay: Inhibition of [3H]raclopride binding to Dopamine receptor D2 of bovine striatum; assay type: tissue-based
# D(2) dopamine receptor, sequence (P20288 whole entry): as above
# [5] = molecular target: T3, 5-hydroxytryptamine receptor 1A (Rattus norvegicus) (UniProt P19327); assay: Inhibition of [3H]8-OH-DPAT binding to 5-hydroxytryptamine 1A receptor in rat hippocampal membranes at 10e-7 M; assay type: cell membranes; settings: Hippocampus, Membrane
# T3 sequence (whole entry): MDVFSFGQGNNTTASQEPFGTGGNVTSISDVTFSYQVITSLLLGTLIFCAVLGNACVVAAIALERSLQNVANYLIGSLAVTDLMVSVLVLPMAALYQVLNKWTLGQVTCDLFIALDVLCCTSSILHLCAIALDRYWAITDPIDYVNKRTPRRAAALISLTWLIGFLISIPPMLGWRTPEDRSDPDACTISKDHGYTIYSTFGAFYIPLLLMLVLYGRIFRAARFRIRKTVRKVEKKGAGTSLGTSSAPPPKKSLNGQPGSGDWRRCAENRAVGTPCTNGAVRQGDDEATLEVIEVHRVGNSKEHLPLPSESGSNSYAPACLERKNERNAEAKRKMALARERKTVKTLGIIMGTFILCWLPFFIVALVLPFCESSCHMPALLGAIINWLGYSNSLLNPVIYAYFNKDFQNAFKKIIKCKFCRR
# Histamine H1 receptor = Histamine H1 receptor (Rattus norvegicus, UniProt P31390); assay: Inhibition of [3H]pyrilamine binding to Histamine H1 receptor in rat cortex
# Histamine H1 receptor, sequence (P31390 whole entry): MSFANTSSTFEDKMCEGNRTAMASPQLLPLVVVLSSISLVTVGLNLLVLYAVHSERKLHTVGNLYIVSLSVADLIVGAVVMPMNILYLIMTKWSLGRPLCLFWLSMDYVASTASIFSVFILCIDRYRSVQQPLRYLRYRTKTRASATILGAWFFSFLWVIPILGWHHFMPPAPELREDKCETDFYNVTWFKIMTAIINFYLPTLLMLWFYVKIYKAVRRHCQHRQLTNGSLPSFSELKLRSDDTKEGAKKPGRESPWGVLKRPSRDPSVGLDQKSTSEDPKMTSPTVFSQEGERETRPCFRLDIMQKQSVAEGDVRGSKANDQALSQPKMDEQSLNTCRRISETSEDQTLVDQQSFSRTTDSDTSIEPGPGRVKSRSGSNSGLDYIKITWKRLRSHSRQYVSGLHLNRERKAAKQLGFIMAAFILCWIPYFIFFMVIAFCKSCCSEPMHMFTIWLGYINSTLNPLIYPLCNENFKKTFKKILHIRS
# Rattus norvegicus = assay: in vivo behavioral test for Lower Lip Retraction(LLR) (msad=minimum significant active dose) in rats; assay type: functional
# [6] = Inhibition of [3H]ketanserin binding to 5-hydroxytryptamine 2 receptor of bovine frontal cortex; assay type: tissue-based, Bos taurus
# D(1A) dopamine receptor [7] = molecular target: T4, D(1A) dopamine receptor (Bos taurus, UniProt Q95136); assay: Inhibition of [3H]SCH-23390 binding to Dopamine receptor D1 of bovine striatum; assay type: tissue-based
# T4 sequence (Q95136 whole entry): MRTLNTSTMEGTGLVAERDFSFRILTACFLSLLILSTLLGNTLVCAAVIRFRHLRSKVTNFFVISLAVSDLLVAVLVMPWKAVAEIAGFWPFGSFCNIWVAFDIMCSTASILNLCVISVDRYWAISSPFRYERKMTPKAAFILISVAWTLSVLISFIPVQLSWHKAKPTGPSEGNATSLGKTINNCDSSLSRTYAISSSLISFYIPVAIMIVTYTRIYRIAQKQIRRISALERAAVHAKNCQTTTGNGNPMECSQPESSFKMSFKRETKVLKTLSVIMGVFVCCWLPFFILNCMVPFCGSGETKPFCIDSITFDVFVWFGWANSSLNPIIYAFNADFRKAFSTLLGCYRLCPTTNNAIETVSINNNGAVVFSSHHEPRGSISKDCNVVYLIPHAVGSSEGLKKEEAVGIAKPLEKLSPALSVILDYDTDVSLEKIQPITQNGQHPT
# [8] = molecular target: T5, 5-hydroxytryptamine receptor 1A (Rattus norvegicus, UniProt P19327); assay: Displacement of [3H]8-OH-DPAT from 5-hydroxytryptamine 1A receptor of rat hippocampal membranes; assay type: cell membranes, Membrane
# T5 sequence (P19327 whole entry): T3 sequence (whole entry)
# [9] = molecular target: Sigma non-opioid intracellular receptor 1 (Rattus norvegicus, UniProt Q9R0C9); assay: Inhibition of [3H]DTG binding to sigma receptor in rat hippocampus; assay type: tissue-based
# Sigma non-opioid intracellular receptor 1 (Rattus norvegicus, UniProt Q9R0C9), sequence (Q9R0C9 whole entry): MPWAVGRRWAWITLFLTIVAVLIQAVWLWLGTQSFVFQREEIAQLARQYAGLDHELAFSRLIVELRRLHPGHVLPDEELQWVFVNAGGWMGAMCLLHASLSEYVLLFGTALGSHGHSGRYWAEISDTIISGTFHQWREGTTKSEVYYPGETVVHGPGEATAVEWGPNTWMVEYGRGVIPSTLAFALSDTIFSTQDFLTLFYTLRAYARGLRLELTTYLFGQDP
# Bos taurus [10] = species: Bos taurus; assay: Inhibition of [3H]prazosin binding to Alpha-1 adrenergic receptor of calf frontal cortex at 10e-7 M; assay type: tissue-based
# Bos taurus [11] = species: Bos taurus; assay: Inhibition of [3H]ketanserin binding to 5-hydroxytryptamine 2 receptor of bovine frontal cortex at 10e-7 M; assay type: tissue-based
# [12] = molecular target: T5, 5-hydroxytryptamine receptor 1A; assay: Inhibition of forskolin-activated adenylate cyclase (cAMP) activity at 5-hydroxytryptamine 1A receptor in rat hippocampus; assay type: functional, tissue-based
# [13] = Displacement of [3H]-prazosin from Alpha-1 adrenergic receptor of bovine frontal cortex; assay type: tissue-based, Bos taurus
# [14] = molecular target: 5-hydroxytryptamine receptor 1D (Sus scrofa, UniProt P79400); assay: Binding affinity against 5-hydroxytryptamine 1D receptor using [3H]5-HT in pig striatum + frontalCortex; assay type: tissue-based
# 5-hydroxytryptamine receptor 1D, sequence (P79400 whole entry): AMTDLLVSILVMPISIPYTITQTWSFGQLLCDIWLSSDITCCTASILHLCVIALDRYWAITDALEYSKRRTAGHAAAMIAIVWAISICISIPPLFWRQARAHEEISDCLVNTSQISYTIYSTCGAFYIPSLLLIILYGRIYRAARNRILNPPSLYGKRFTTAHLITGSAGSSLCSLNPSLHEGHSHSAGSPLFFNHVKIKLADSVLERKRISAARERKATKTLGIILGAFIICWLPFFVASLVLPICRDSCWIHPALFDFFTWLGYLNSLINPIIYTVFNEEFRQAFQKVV
# [15] = molecular target: 5-hydroxytryptamine receptor 2A (Bos taurus, UniProt Q75Z89); assay: Binding affinity against 5-hydroxytryptamine 2 receptor
# 5-hydroxytryptamine receptor 2A, sequence (Q75Z89 whole entry): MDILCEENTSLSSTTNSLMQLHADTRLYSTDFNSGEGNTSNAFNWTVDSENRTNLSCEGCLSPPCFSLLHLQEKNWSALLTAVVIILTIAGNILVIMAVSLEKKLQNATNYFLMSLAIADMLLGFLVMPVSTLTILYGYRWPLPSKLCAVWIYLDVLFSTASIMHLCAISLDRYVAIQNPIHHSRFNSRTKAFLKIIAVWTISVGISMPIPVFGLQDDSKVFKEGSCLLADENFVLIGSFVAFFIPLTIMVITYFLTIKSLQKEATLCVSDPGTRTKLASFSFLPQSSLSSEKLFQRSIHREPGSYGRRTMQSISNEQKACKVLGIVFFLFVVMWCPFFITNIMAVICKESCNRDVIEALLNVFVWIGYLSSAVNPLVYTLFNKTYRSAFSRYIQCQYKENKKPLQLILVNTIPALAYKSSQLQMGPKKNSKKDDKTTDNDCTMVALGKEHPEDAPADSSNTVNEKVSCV
# D(1A) dopamine receptor [16] = molecular target: D(1A) dopamine receptor (Mus musculus, UniProt Q61616); assay: Binding affinity against Dopamine receptor D1
# D(1A) dopamine receptor (Mus musculus, UniProt Q61616), sequence (Q61616 whole entry): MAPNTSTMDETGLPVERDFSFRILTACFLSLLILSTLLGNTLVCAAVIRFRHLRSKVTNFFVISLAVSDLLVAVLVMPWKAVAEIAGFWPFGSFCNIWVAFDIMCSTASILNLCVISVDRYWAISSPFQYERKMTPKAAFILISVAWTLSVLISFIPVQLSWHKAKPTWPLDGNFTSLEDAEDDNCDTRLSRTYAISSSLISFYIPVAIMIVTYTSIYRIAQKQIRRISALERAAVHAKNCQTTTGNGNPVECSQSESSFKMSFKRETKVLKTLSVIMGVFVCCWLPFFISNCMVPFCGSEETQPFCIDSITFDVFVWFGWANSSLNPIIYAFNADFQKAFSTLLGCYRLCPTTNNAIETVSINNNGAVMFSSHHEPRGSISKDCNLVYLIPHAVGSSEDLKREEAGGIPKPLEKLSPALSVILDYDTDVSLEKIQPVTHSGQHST
# [17] = molecular target: Sigma non-opioid intracellular receptor 1 (Homo sapiens, UniProt Q99720); assay: Binding affinity against sigma receptor
# Sigma non-opioid intracellular receptor 1 (Homo sapiens, UniProt Q99720), sequence (Q99720 whole entry): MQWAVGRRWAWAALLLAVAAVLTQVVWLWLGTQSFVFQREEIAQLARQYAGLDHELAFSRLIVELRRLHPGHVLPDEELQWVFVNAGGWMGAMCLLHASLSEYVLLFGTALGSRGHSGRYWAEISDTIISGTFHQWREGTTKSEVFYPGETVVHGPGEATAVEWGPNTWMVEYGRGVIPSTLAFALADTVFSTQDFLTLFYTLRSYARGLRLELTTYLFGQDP
# D(1A) dopamine receptor [18] = molecular target: T4, D(1A) dopamine receptor; assay: Binding affinity of compound towards Dopamine receptor D1 using [3H]SCH-23390 (0.5 nM) ligand in striatum bovine was determined; assay type: tissue-based
inhibition [4],inhibition [5],inhibition (Bos taurus [10]),inhibition (Bos taurus [11]),SMILES,Ki (D(2) dopamine receptor),Ki (D(1A) dopamine receptor [7]),Ki [8],Ki [9],IC50 [12],Ki [13],further results
–,–,–,–,COc1cccc(OC)c1OCCNCC1COc2ccccc2O1 (stereo not drawn),–,–,–,–,–,–,Ki [1]: 0.6 nM
60%,11%,0%,10%,COc1ccc(C(=O)NCCN2CCN(C3CCCCc4ccccc43)CC2)cc1 (stereo not drawn),–,–,–,–,–,–,–
7%,63%,0%,28%,COc1ccc(C(=O)NCCN2CCN(C3CCCc4ccccc43)CC2)cc1 (stereo not drawn),–,–,–,–,–,–,–
11%,45%,6%,17%,COc1ccc(C(=O)NCCN2CCN(C3CCc4ccccc43)CC2)cc1 (stereo not drawn),–,–,–,–,–,–,–
47%,0%,0%,14%,Cc1ccc(C(=O)NCCN2CCN(C3CCCCc4ccccc43)CC2)cc1 (stereo not drawn),–,–,–,–,–,–,–
5%,42%,0%,6%,Cc1ccc(C(=O)NCCN2CCN(C3CCCc4ccccc43)CC2)cc1 (stereo not drawn),–,–,–,–,–,–,–
0%,68%,6%,19%,O=C(NCCCN1CCN(C2CCCc3ccccc32)CC1)c1ccc(F)cc1 (stereo not drawn),–,–,–,–,–,–,–
2%,39%,11%,17%,O=C(NCCCN1CCN(C2CCCc3ccccc32)CC1)c1ccccc1 (stereo not drawn),–,–,–,–,–,–,–
31%,22%,0%,23%,O=C(NCCN1CCN(C2CCCCc3ccccc32)CC1)c1ccc(F)cc1 (stereo not drawn),–,–,–,–,–,–,–
7%,51%,0%,37%,O=C(NCCN1CCN(C2CCCCc3ccccc32)CC1)c1ccccc1 (stereo not drawn),–,–,–,–,–,–,–
0%,69%,36%,0%,O=C(NCCN1CCN(C2CCc3ccccc32)CC1)c1ccc(F)cc1 (stereo not drawn),–,–,–,–,–,–,–
–,–,–,–,"O=C(NCCN1CCN(C2CCCc3ccccc32)CC1)c1ccc(F)cc1 (single isomer, unassigned; (+))",740 nM,–,50 nM,190 nM,1450 nM,710 nM,Ki ([6]; read-out: Ki): 1300 nM
–,–,–,–,"O=C(NCCN1CCN(C2CCCc3ccccc32)CC1)c1ccccc1 (single isomer, unassigned; (-))",130 nM,–,0.4 nM,–,14 nM,190 nM,Ki (Histamine H1 receptor): 70 nM; LLR msad (Rattus norvegicus): 2.75 mg/kg
–,–,–,–,"O=C(NCCN1CCN(C2CCCc3ccccc32)CC1)c1ccc(F)cc1 (single isomer, unassigned; (-))",70 nM,3090 nM,–,130 nM,15 nM,124 nM,Ki (Histamine H1 receptor): 58 nM; LLR msad (Rattus norvegicus): 2.25 mg/kg; Ki ([6]; read-out: Ki): 1380 nM
–,–,–,–,O=C(NCCN1CCN(C2CCCc3ccccc32)CC1)c1ccccc1 (stereo in doubt; 32) [listing 1 of 2 here],110 nM,21900 nM,1.1 nM,90 nM,36 nM,150 nM,Ki [14]: 6920 nM; Ki [3]: 3470 nM; Ki (Histamine H1 receptor): 30 nM; Ki ([6]; read-out: Ki): 710 nM
–,–,–,–,O=C(NCCN1CCN(C2CCCc3ccccc32)CC1)c1ccc(F)cc1 (stereo in doubt; 33) [listing 1 of 2 here],70 nM,12000 nM,1.5 nM,280 nM,52 nM,80 nM,Ki [14]: 9770 nM; Ki [3]: 3470 nM; Ki (Histamine H1 receptor): 140 nM; Ki ([6]; read-out: Ki): 1180 nM
–,–,–,–,O=C(NCCN1CCN(C2CCCc3ccccc32)CC1)c1ccc(Cl)cc1 (stereo in doubt; 34) [listing 1 of 2 here],120 nM,–,10 nM,–,75 nM,410 nM,Ki [6]: 1000 nM
–,–,–,–,O=C(NCCN1CCN(C2CCCc3ccccc32)CC1)c1ccc(Cl)cc1 (stereo in doubt; (+)-34),700 nM,19700 nM,210 nM,200 nM,1500 nM,8380 nM,Ki [6]: 3800 nM
–,–,–,–,O=C(NCCN1CCN(C2CCCc3ccccc32)CC1)c1ccc(Cl)cc1 (stereo in doubt; (-)-34),480 nM,27000 nM,4 nM,1250 nM,38 nM,450 nM,LLR msad (Rattus norvegicus): 2.5 mg/kg; Ki [6]: 2700 nM
–,–,–,–,CCCN(CCC)C1CCc2cccc(O)c2C1 (stereo not drawn) [8-OH-DPAT],2380 nM,87300 nM,–,5240 nM,–,9460 nM,Ki [15]: > 1000 nM; LLR msad (Rattus norvegicus): 2.2 mg/kg; Ki ([6]; read-out: Ki): 1100 nM; Ki (D(1A) dopamine receptor [16]): > 1000 nM; Ki [17]: > 2430 nM
–,–,–,–,O=C1CC2(CCCC2)CC(=O)N1CCCCN1CCN(c2ncccn2)CC1 [BUSPIRONE],44 nM,6100 nM,–,–,–,1320 nM,Ki [15]: 178 nM; Ki ([6]; read-out: Ki): 1250 nM; Ki (D(1A) dopamine receptor [16]): > 1000 nM
–,–,–,–,OCCN1CCN(CC/C=C2\c3ccccc3Sc3ccc(C(F)(F)F)cc32)CC1 [E-FLUPENTIXOL],–,–,–,–,–,–,Ki (D(1A) dopamine receptor [18]): 18 nM

SMILES,inhibition [4],inhibition [5],inhibition (Bos taurus [10]),inhibition (Bos taurus [11]),Ki (D(2) dopamine receptor),Ki (D(1A) dopamine receptor [7]),Ki [8],Ki [9],IC50 [12],Ki [13],further results
O=C(CCCN1CCN(C2CCCc3ccccc32)CC1)c1ccc(F)cc1 (stereo not drawn),74%,37%,1%,20%,110 nM,1000 nM,17 nM,30 nM,210 nM,–,Ki [2]: 18 nM; Ki [3]: 3160 nM; Ki (Histamine H1 receptor): 42 nM; LLR msad (Rattus norvegicus): >64 mg/kg; Ki ([6]; read-out: Ki): 66 nM
O=C(NCCN1CCN(C2CCCc3ccccc32)CC1)c1ccccc1 (stereo in doubt; 32) [listing 2 of 2 here],4%,93%,4%,0%,–,–,–,–,–,–,–
O=C(NCCN1CCN(C2CCCc3ccccc32)CC1)c1ccc(F)cc1 (stereo in doubt; 33) [listing 2 of 2 here],3%,88%,22%,17%,–,–,–,–,–,–,–
O=C(NCCN1CCN(C2CCCc3ccccc32)CC1)c1ccc(Cl)cc1 (stereo in doubt; 34) [listing 2 of 2 here],29%,86%,23%,6%,–,–,–,–,–,–,–
